Measured values published in PMC6270601, “Dimeric Labdane Diterpenes: Synthesis and Antiproliferative Effects” (Molecules, 2013).

What was measured:
AGS cells = test: Antiproliferative assay (MTT reduction), AGS gastric adenocarcinoma cells; type: cell-based, human; conditions: Homo sapiens, 72 h; AGS gastric adenocarcinoma; 3 days treatment, MTT reduction; mean ± SD; >100 µM considered inactive
Procedure: (§1) The compounds 1–20 were assessed for antiproliferative effect towards human lung fibroblasts (MRC-5) and the following human tumor cell lines: gastric adenocarcinoma (AGS), lung cancer cells (SK-MES-1), bladder carcinoma (J82) and promyelocytic leukemia (HL-60).
(§2) All human cell lines used in this work were purchased from the American Type Culture Collection (ATCC, Manasas, VA, USA). Normal lung MRC-5 fibroblasts (CCL-171), SK-MES-1 lung cancer cells (HTB-58) and J82 bladder carcinoma cells (HTB-1) were grown as monolayers in minimum essential Eagle medium (MEM) with Earles’s salts, 2 mM L-glutamine and 1.5 g/L sodium bicarbonate. Gastric adenocarcinoma AGS cells (CRL-1739) were grown as monolayers in Ham F-12 medium containing 1 mM L-glutamine and 1.5 g/L sodium bicarbonate. Promyelocytic leukemia HL-60 cells (CCL-240) were grown in suspension in RPM1 medium containing 1 mM sodium pyruvate and 2.0 g/L sodium bicarbonate. All media were supplemented with 10% heat-inactivated FBS, 100 IU/mL penicillin and 100 µg/mL streptomycin. Cells were grown in a humidified incubator with 5% CO2 in air at 37 °C. For the antiproliferative assay, adherent cells were plated at a density of 5 × 10^4 cells/mL and HL-60 cells at 30 × 10^4 cells/mL. Cells were seeded in 96-well plates (100 µL/well). One day after seeding, cells were treated with medium containing the compounds at concentrations ranging from 0 up to 100 µM during 3 days. The compounds were dissolved in DMSO (1% final concentration) and complete medium. Untreated cells (medium containing 1% DMSO) were used as 100% viability controls. […] Each concentration was tested in sextuplicate and experiments were repeated 2 times. Cell viability was determined by means of the MTT reduction assay at the end of the incubation with the products. The results were transformed to percentage of controls and the IC50 values were graphically obtained from the dose-response curves.

[1] = tested on: MRC-5, AGS, SK-MES-1, J82 and HL-60 cell lines; test: Antiproliferative assay, panel of five human cell lines (summary in words); type: cell-based; conditions: SK-MES-1, J82, HL-60, up to 100 µM
Procedure: as §1, §2

[2] = tested on: SK-MES-1 lung cancer cells; test: Antiproliferative assay (MTT reduction), SK-MES-1 lung cancer cells; type: cell-based, human; conditions: Homo sapiens, 72 h; SK-MES-1 lung cancer cells; 3 days treatment, MTT reduction; mean ± SD; >100 µM considered inactive
Procedure: as §2, with “Normal lung MRC-5 fibroblasts (CCL-171), SK-MES-1 lung cancer cells (HTB-58) and J82 bladder carcinoma cells (HTB-1) were grown as monolayers in minimum essential Eagle medium (MEM) with Earles’s salts, 2 mM L-glutamine and 1.5 g/L sodium bicarbonate. Gastric adenocarcinoma AGS cells (CRL-1739) were grown as monolayers in Ham F-12 medium containing 1 mM L-glutamine and 1.5 g/L sodium bicarbonate.” left out, “products.” for “products. The results were transformed to percentage of controls and the IC50 values were graphically obtained from the dose-response curves.”

HL-60 cells = test: Antiproliferative assay (MTT reduction), HL-60 promyelocytic leukemia cells; type: cell-based, human; conditions: Homo sapiens, 72 h; HL-60 promyelocytic leukemia; 3 days treatment, MTT reduction; mean ± SD; >100 µM considered inactive
Procedure: as §2, with “Normal lung MRC-5 fibroblasts (CCL-171), SK-MES-1 lung cancer cells (HTB-58) and J82 bladder carcinoma cells (HTB-1) were grown as monolayers in minimum essential Eagle medium (MEM) with Earles’s salts, 2 mM L-glutamine and 1.5 g/L sodium bicarbonate. Gastric adenocarcinoma AGS cells (CRL-1739) were grown as monolayers in Ham F-12 medium containing 1 mM L-glutamine and 1.5 g/L sodium bicarbonate.” left out, “products.” for “products. The results were transformed to percentage of controls and the IC50 values were graphically obtained from the dose-response curves.”

[3] = tested on: J82 bladder carcinoma cells; test: Antiproliferative assay (MTT reduction), J82 bladder carcinoma cells; type: cell-based, human; conditions: Homo sapiens, 72 h; J82 bladder carcinoma; 3 days treatment, MTT reduction; mean ± SD; >100 µM considered inactive
Procedure: as §2, with “Normal lung MRC-5 fibroblasts (CCL-171), SK-MES-1 lung cancer cells (HTB-58) and J82 bladder carcinoma cells (HTB-1) were grown as monolayers in minimum essential Eagle medium (MEM) with Earles’s salts, 2 mM L-glutamine and 1.5 g/L sodium bicarbonate. Gastric adenocarcinoma AGS cells (CRL-1739) were grown as monolayers in Ham F-12 medium containing 1 mM L-glutamine and 1.5 g/L sodium bicarbonate.” left out, “products.” for “products. The results were transformed to percentage of controls and the IC50 values were graphically obtained from the dose-response curves.”

MRC-5 normal fibroblasts = test: Antiproliferative assay (MTT reduction), MRC-5 normal lung fibroblasts; type: cell-based, human; conditions: Homo sapiens, MRC5, 72 h; MRC-5 normal fibroblasts; 3 days treatment, MTT reduction; mean ± SD; >100 µM considered inactive
Procedure: as §2, with “Normal lung MRC-5 fibroblasts (CCL-171), SK-MES-1 lung cancer cells (HTB-58) and J82 bladder carcinoma cells (HTB-1) were grown as monolayers in minimum essential Eagle medium (MEM) with Earles’s salts, 2 mM L-glutamine and 1.5 g/L sodium bicarbonate. Gastric adenocarcinoma AGS cells (CRL-1739) were grown as monolayers in Ham F-12 medium containing 1 mM L-glutamine and 1.5 g/L sodium bicarbonate.” left out, “products.” for “products. The results were transformed to percentage of controls and the IC50 values were graphically obtained from the dose-response curves.”

Row | IC50 (AGS cells) [µM] | IC50 [2] [µM] | IC50 (HL-60 cells) [µM] | IC50 [3] [µM] | SMILES | antiproliferative effect on the five cell lines (in words) [1] | IC50 (MRC-5 normal fibroblasts) [µM]
1 | > 100 | > 100 | > 100 | > 100 | C=C1CCC2[C@](C)(CCC[C@]2(C)C(=O)OC)[C@H]1CC[C@@H](C)CCOCC[C@H](C)CC[C@H]1C(=C)CCC2[C@]1(C)CCC[C@]2(C)C(=O)OC (stereo partly shown) [Compound 7] | no antiproliferative effect | > 100
2 | > 100 | > 100 | > 100 | > 100 | C=C1CCC2[C@](C)(CCC[C@]2(C)C(=O)OC)[C@H]1CC[C@@H](C)CCn1cc(CCC(=O)O)nn1 (stereo partly shown) [Compound 6, 15-(4-(2-Carboxyethyl)-1H-1,2,3-triazol-1-yl)-imbricatolic acid methyl ester] | no antiproliferative effect on any of the cell lines | > 100
3 | > 100 | > 100 | > 100 | > 100 | C=C1CCC2[C@](C)(CCC[C@]2(C)C(=O)O)[C@H]1CC[C@@H](C)CC(=O)O (stereo partly shown) [Compound 2, Labd-8(17)-en-15,19-dioic acid] | no antiproliferative effect on any of the cell lines | > 100
4 | > 100 | > 100 | > 100 | > 100 | C=C1CCC2[C@](C)(CCC[C@]2(C)C(=O)OC)[C@H]1CC[C@@H](C)CCn1cc(CCC(=O)OCC[C@H](C)CC[C@H]2C(=C)CCC3[C@]2(C)CCC[C@]3(C)C(=O)OC)nn1 (stereo partly shown) [Compound 20] | no antiproliferative effect on any of the cell lines | > 100
5 | > 100 | > 100 | 42.4 ± 2.5 | > 100 | C=C1CCC2[C@](C)(CCC[C@]2(C)C(=O)O)[C@H]1CC[C@@H](C)CCOC(=O)CCc1cn(CC[C@H](C)CC[C@H]2C(=C)CCC3[C@]2(C)CCC[C@]3(C)C(=O)OC)nn1 (stereo partly shown) [Compound 19] | no antiproliferative effect on any of the cell lines, except on HL-60 | > 100
6 | 62.9 ± 3.9 | 68.2 ± 4.5 | 60.8 ± 4.2 | 72.1 ± 4.3 | C=C1CCC2[C@](C)(CCC[C@]2(C)C(=O)OC)[C@H]1CC[C@@H](C)CCOC(=O)CCC(=O)OCC[C@H](C)CC[C@H]1C(=C)CCC2[C@]1(C)CCC[C@]2(C)C(=O)OC (stereo partly shown) [Compound 13] | – | 76.8 ± 5.4
7 | > 100 | > 100 | > 100 | > 100 | C=C1CCC2[C@](C)(CCC[C@]2(C)C(=O)OC)[C@H]1CC[C@@H](C)CCn1cc(CCOC(=O)C[C@H](C)CC[C@H]2C(=C)CCC3[C@]2(C)CCC[C@]3(C)C(=O)OC)nn1 (stereo partly shown) [Compound 18] | – | > 100
8 | 51.7 ± 2.8 | > 100 | 55.6 ± 3.9 | > 100 | C=C1CCC2[C@](C)(CCC[C@]2(C)C(=O)OC)[C@H]1CC[C@@H](C)CCOC(=O)c1ccccc1C(=O)OCC[C@H](C)CC[C@H]1C(=C)CCC2[C@]1(C)CCC[C@]2(C)C(=O)OC (stereo partly shown) [Compound 14] | – | 76.3 ± 5.8
9 | 41.5 ± 2.1 | 67.7 ± 3.1 | > 100 | 60.7 ± 4.6 | C=C1CCC2[C@](C)(CCC[C@]2(C)C(=O)OC)[C@H]1CC[C@@H](C)CCn1cc(CO)nn1 (stereo partly shown) [Compound 4, 15-(4-(Hydroxymethyl)-1H-1,2,3-triazol-1-yl)-imbricatolic acid methyl ester] | – | 77.4 ± 3.9
10 | 70.3 ± 6.3 | > 100 | 57.8 ± 4.1 | > 100 | C=C1CCC2[C@](C)(CCC[C@]2(C)C(=O)OC)[C@H]1CC[C@@H](C)CCOCCCCOCC[C@H](C)CC[C@H]1C(=C)CCC2[C@]1(C)CCC[C@]2(C)C(=O)OC (stereo partly shown) [Compound 8] | – | > 100
